The results in this text go back to patent US20240067603A1, “CUBANYL BIGUANIDE COMPOUNDS” (REGENTS OF THE UNIVERSITY OF MINNESOTA, priority 2020, published 2024).

One data set relates to MCF-7 cells. Briefly: MTT cell proliferation assay, MCF-7. Type of data set: cell-based, human. To be noted: Homo sapiens, MCF7; MTT, 24 hours treatment, curve fitting; read-out: IC50, proliferation of MCF-7 cells. Here is the method: FIG. 8. Effects of HCB on the proliferation of MCF-7 cells. MCF-7 cells were seeded in 96 well plates and treated with drugs at varied concentration for 24 hours. MTT assay was performed to determine remaining viable cells in each well. Results are represented as mean±S.D. (n=7). IC50 was determined by curve fitting.
3-(4,5-Dimethylthiazol-2-yl)-2,5-diphenyltetrazolium Bromide (MTT) Cell Proliferation Assay. To cells grown in 96-well-tissue culture plate, 20 μl/well of MTT solution (5 mg/ml in PBS) was added. After 1-2 hours incubation at 37° C., the plate was centrifuged. Supernatant was discarded and 100 μl DMSO was added to dissolve water insoluble formazan, and the absorbance was read at 540 nm with a plate reader.
On the technique in general: Tetrazolium dyes change colour on reduction, which living cells bring about.

The subject of data set [1] is SARS-CoV-2. Nature of the data set: SARS-CoV-2 antiviral assay in Vero cells. The data set is classed as cell-based. The conditions noted are these: Severe acute respiratory syndrome coronavirus 2, Vero.
In data set [2] the test system is SARS-CoV-2. Nature of the data set: microbe, parasite or virus in culture. The data set is classed as cell-based.
A further data set can be described thus: in vitro. To be noted: African green monkey, Vero E6 cells.
The test system of the next data set is Vero cells. Nature of the data set: Cytotoxicity assay in Vero cells.
Data set [3] can be described thus: Cytotoxicity assay in 293T/ACE2 cells. To be noted: human, HEK293T/17 cells expressing human ACE2.
Data set [4] concerns 293T human embryonic kidney cells over-expressing the ACE2 receptor. Briefly: Cytotoxicity assay in 293T/ACE2 cells. The conditions noted are these: 293T/ACE2 cytotoxicity.

Regarding `CC(F)(F)CCCCNC(=N)NC(=N)NCC12C3C4C5C3C1C5C42` (centres unmarked) [HCB-F2, N1-5′,5′-difluorohexyl-N5-(cuban-1-yl)methyl-biguanide], in the data set with MCF-7 cells, the IC50 stood at 13.5 µM.

Consider `N=C(NCCCCCC(F)(F)F)NC(=N)NCC12C3C4C5C3C1C5C42` (centres unmarked) [HCB-F3, N1-6′,6′,6′-trifluorohexyl-N5-(cuban-1′-yl)methyl-biguanide], for which the IC50 in the data set with MCF-7 cells amounted to 13.7 µM.

For the compound `N=C(NCC12C3C4C5C3C1C5C42)NC(=N)NCC12C3C4C5C3C1C5C42` (centres unmarked) [DCB, Dicubanomethyl Biguanide], the IC50 with MCF-7 cells was 22.1 ± 1.7 µM.

For `CCC(CC)COC(=O)[C@H](C)N[P@](=O)(OC[C@H]1O[C@@](C#N)(c2ccc3c(N)ncnn23)[C@H](O)[C@@H]1O)Oc1ccccc1` [remdesivir], the IC50 stood at 1.04 µM with SARS-CoV-2 [1] (read-out: antiviral IC50) and 0.02 µM in the data set with SARS-CoV-2 [2] (Severe acute respiratory syndrome coronavirus 2, 293T/ACE2, read-out: antiviral IC50). Further, the IC90 (as a rule, the concentration needed for an effect of 90%) in the data set with SARS-CoV-2 [1] (read-out: antiviral IC90) stood at 2.25 µM; with SARS-CoV-2 [2] (Severe acute respiratory syndrome coronavirus 2, 293T/ACE2, read-out: antiviral IC90), 0.022 µM. The CC50 (commonly the concentration at which the toxic effect on the cells reaches its halfway point) at 48 h in the data set “in vitro” was more than 20 µM. The CC10 in the data set with Vero cells is more than 0.286 µM; in data set [4], more than 0.1 µM. The CC50 in data set [3] was more than 0.1 µM.
